According to patent US8802135B2, “Delivery system for remote treatment of an animal” (SmartVet Pty Ltd., priority 2006, dated 2014):

How the values were obtained:
[1] = primate skin types in contact with pure ivermectin; cited from earlier work
wireworm = assay: efficacy trial against endo-parasite wireworm; format: in vivo, cattle; details: ~200 kg cow, slaughtered 3 weeks after treatment
Method: The purpose of the trial was to establish the efficacy of biologically active agent when administered by the system according to the present invention in treating cattle for the endo-parasite wireworm.
Two cattle of similar age and weight (˜200 kg) were infected with wireworm parasite to the level of 6000 to 8000 worm eggs per gram of faeces. One cow was treated with the biologically active agent in its ‘pour on’ form and the other cattle were treated with two dosage projectiles fired from a distance of approx 20 meters with a CO2 propelled launcher with an impact velocity of about 130 ft/sec.
Each projectile was spherical and made from soft gelatine compound with the shell being of about 2 mm thick. The size was sufficient to hold about 10 ml of the liquid biologically active agent comprising the following constituent:
10 mg of abamectin (at a dosage concentration of 1 mg per 10 kg of body mass)
5% solution of the solvent/transdermal carrier propylene glycol (the proprietary brand Icinol)
a standard turquoise, inert pharmaceutical colorant known as FC & D blue
The impact area of the ruptured projectiles was the hind quarter and lower neck/shoulder of the cattle.
The cattle were slaughtered 3 weeks after treatment and the stomach contents/linings examined under laboratory conditions.

[2] = drug trials: absorption of abamectin from projectile vs Pour On; format: in vivo; details: applied in a projectile at 5 g/l
Description: The system has been adapted for use in Africa for treating antelope species. Each projectile was designed to treat a 100 kg animal.

Row | Substance | active agent absorbed into the bloodstream [1] | free of parasite (wireworm; 'pour on' form) | free of internal parasite infection (wireworm; two dosage projectiles) | absorption of the active compared with traditional Pour On application ([2]; antelope species) | absorption of the active compared with traditional Pour On application ([2]; cattle)
1 | ivermectin [pure ivermectin] | less than 1% |  |  |  | 
2 | abamectin |  | approx 96% | 100% | at least as good as | at least as good as
